Test results reported in PMC4564450, “Oral and inhaled p38 MAPK inhibitors: effects on inhaled LPS challenge in healthy subjects” (European Journal of Clinical Pharmacology, 2015).

What was measured:
[1] = Drug concentration in sputum supernatant; type: in vivo, human; conditions: study 2, ten subjects, PF-03715455 inhaled dose, PH-797804 oral dose
[2] = tested on: sputum neutrophils and macrophages after inhaled LPS; experiment: Inhaled LPS challenge in healthy subjects: induced sputum cell counts; type: in vivo, human; conditions: for attenuation of the modelled LPS response (sputum neutrophil percentage): PH-797804: studies 1 and 2, PF-03715455: study 2; for Mean (SD) sputum neutrophil percentage: 6 h post-LPS; for Total Macrophage Count in sputum / Total Neutrophil Count in sputum / Macrophage Differential in sputum / Total Cell Count in sputum: ANCOVA model mean; for Macrophage Differential in sputum, difference between the active treatment mean and the placebo mean: footnote: difference, not ratio
Method: Three randomised, double-blind, placebo-controlled crossover studies were performed; the effects of a single dose of active treatment was investigated in all three studies. […] Studies 2 and 3 were conducted at two UK centres: Quintiles Drug Research Unit, London, and Medicines Evaluation Unit, Manchester. […] The studies were performed during the following time periods: study 1, Sep 2006–Mar 2008; study 2, Jan 2011–Dec 2011; and study 3, Jul 2011–Jan 2012. The design of all three studies was similar. A baseline sputum sample was obtained within 14 days of the first study period when subjects were administered a single dose of randomised treatment. […] Induced sputum was obtained 6 h later to coincide with the maximal inflammatory response caused by inhaled LPS. […] This criterion was used to ensure that sputum cell counts after LPS challenge had returned to close to the original baseline values; this was done to reduce data variability between treatment periods. […] For each challenge, a 1-mg vial of lyophilised LPS (Escherichia coli serotype O26:B6, ref. L-2654, Sigma-Aldrich, Dorset, UK) was diluted with 4 mL of 0.9 % w/v sodium chloride. The reconstitution produced a 0.25 mg/mL solution, of which 2 mL was placed into the pre-calibrated dosimeter pot and administered via five inhalations from a breath-activated dosimeter (Mefar dosimeter MB3, Brescia, Italy). Each inhalation was performed over 3 s with a 6-s breath hold. […] Sputum was induced using normal saline after inhalation of salbutamol, and processing was performed using dithiothreitol (DTT) as previously described. The supernatants were stored at −80 °C for later analysis, while cells were used to produce cytoslides (Cytospin 4, Shandon, Runcorn, UK) for differential cell counting and immunocytochemistry. […] Cell viability was analysed by trypan blue exclusion. Cytoslides with % squamous cell counts <20 % were deemed to be of acceptable quality for differential cell counting. Unfixed cytoslides were wrapped in aluminium foil and stored frozen at −80 °C for immunocytochemistry. Sputum neutrophil percentage was the primary endpoint for all three studies. The neutrophil percentage was modelled using a mixed effects analysis of covariance (ANCOVA) model appropriate for a two-period, two-treatment or three-period, three-treatment crossover design. The fixed effects in the model were treatment and period. Subjects were modelled as a random effect. Additionally, the period-specific baseline was modelled as a covariate. This model was used for all sputum inflammatory markers, including the immunohistocytochemistry, where cell counts were log transformed before analyzing the data and percent differentials were not transformed. […] Ninety percent confidence intervals of the difference (non-transformed data) or the ratio (log-transformed data) were constructed based on the ANCOVA model.

[3] = tested on: phospho-p38 expression in sputum macrophages; experiment: Immunocytochemistry of sputum macrophages: phospho-p38; type: in vivo, human; conditions: study 2; for mean percentage of macrophages expressing phospho-p38: PH-797804 30 mg oral or PF-03715455 20 mg inhaled, Post-LPS
Method: (§1) Frozen cytospins created from sputum cells were analysed for phosphorylated-Heat Shock Protein 27 (phospho-HSP27) and phospho-p38 expression in sputum macrophages. The methods are fully described in the online supplement. Phospho-p38 and phospho-HSP27 immunoreactivity is presented as percentage of the macrophage population. All analyses were carried out by blinded observers.
Frozen cytospins created from sputum cells were thawed and the cells were fixed in 4% paraformaldehyde in PBS for 10 minutes at room temperature, followed by blocking in normal serum. Cytospins were then incubated with the following primary antibodies overnight at 4 °C; anti-human phosphorylated-p38 (phospho-p38) MAPK (Thr180/Tyr182) antibody (Cat No. 9211S, New England Biolabs, Herts, UK) or phosphorylated-Heat Shock Protein 27 (phospho-HSP27 [Cat No. S82, New England Biolabs]) diluted 1:50 in 1.5% normal serum with 0.5% Triton X-100 (Sigma-Aldrich). Endogenous peroxidase was quenched by incubating cytospins in 3% H2O2 in methanol (0.3% for phospho-p38). Phospho-p38 and phospho-HSP27 were detected using biotinylated goat anti-rabbit IgG secondary antibody (Vector Labs, Peterborough, UK) in conjunction with an avidin–biotin peroxidase complex (Vector Labs) and 3,3’-diaminobenzidine (DAB) substrate. Cell nuclei were counterstained with Gill’s haematoxylin (Sigma-Aldrich). Omission of primary antibody in staining protocol was used as a negative control.
Digital micrographs were obtained through the use of a Nikon Eclipse 80i microscope (Nikon UK Ltd, Surrey, UK) equipped with a QImaging digital camera (Media cybernetics, Marlow, UK) and ImageProPlus 5.1 software (Media Cybernetics). Sputum macrophages (determined by morphology) were analysed for phospho-p38 and phospho-HSP27 expression following single label immunohistochemistry utilising the ImagePro Plus image analysis software; at least 200 macrophages per cytospin were counted. Phospho-p38 and phospho-HSP27 immunoreactivity was presented as percentage of the macrophage population. All analysis was carried out by blinded observers.

[4] = tested on: phospho-HSP27 expression in sputum macrophages; experiment: Immunocytochemistry of sputum macrophages: phospho-HSP27; type: in vivo, human; conditions: study 2; PH-797804 30 mg oral or PF-03715455 20 mg inhaled; Post-LPS
Method: as §1
Frozen cytospins created from sputum cells were thawed and the cells were fixed in 4% paraformaldehyde in PBS for 10 minutes at room temperature, followed by blocking in normal serum. […] Phospho-p38 and phospho-HSP27 were detected using biotinylated goat anti-rabbit IgG secondary antibody (Vector Labs, Peterborough, UK) in conjunction with an avidin–biotin peroxidase complex (Vector Labs) and 3,3’-diaminobenzidine (DAB) substrate. […]
Digital micrographs were obtained through the use of a Nikon Eclipse 80i microscope (Nikon UK Ltd, Surrey, UK) equipped with a QImaging digital camera (Media cybernetics, Marlow, UK) and ImageProPlus 5.1 software (Media Cybernetics). Sputum macrophages (determined by morphology) were analysed for phospho-p38 and phospho-HSP27 expression following single label immunohistochemistry utilising the ImagePro Plus image analysis software; at least 200 macrophages per cytospin were counted. […]

[5] = Plasma pharmacokinetics (sparse sampling); type: in vivo, human; conditions: for concentration at 23 h / concentration at 30.5 h: human, plasma, po, 30 mg, PH-797804 30 mg oral; for concentration at 23 h: 23 h post dose; for concentration at 30.5 h: 30.5 h post dose; for Plasma concentration: PF-03715455 20 mg inhaled
[6] = tested on: IL-6, MPO, MCP-1 and MIP-1β in sputum supernatant; experiment: Inhaled LPS challenge: sputum supernatant protein biomarkers; type: in vivo, human; conditions: for Sputum IL-6, mean / Sputum MCP-1, mean / Sputum MIP-1β, mean / Sputum MPO, mean: post LPS
Method: A baseline sputum sample was obtained within 14 days of the first study period when subjects were administered a single dose of randomised treatment. […] Induced sputum was obtained 6 h later to coincide with the maximal inflammatory response caused by inhaled LPS. A washout period of at least 21 days followed, with subjects returning after 14 days of the washout period for induced sputum sampling; this was performed to ensure that the total cell count, total neutrophil count and total macrophage count were within the range of −80 to +100 % of the screening values. […] If these criteria were not met, then up to two repeat visits to obtain sputum were allowed, with at least 4 days between sputum inductions. The next randomised treatment day was scheduled at least 4 days after sputum induction and was identical to the first treatment day.
Sputum was induced using normal saline after inhalation of salbutamol, and processing was performed using dithiothreitol (DTT) as previously described [20]. The supernatants were stored at −80 °C for later analysis, while cells were used to produce cytoslides (Cytospin 4, Shandon, Runcorn, UK) for differential cell counting and immunocytochemistry. Cytoslides for differential cell count were fixed in methanol (Sigma) and then stained with Rapi-Diff® (GCC Diagnostics, Sandyhurst, UK) or Wright-modified Giemsa (Accustatin WG-18, Sigma-Aldrich); a minimum of 400 non-squamous cells were counted and differential cell counts obtained as percentage of total non-squamous cells. Cell viability was analysed by trypan blue exclusion. Cytoslides with % squamous cell counts <20 % were deemed to be of acceptable quality for differential cell counting. Unfixed cytoslides were wrapped in aluminium foil and stored frozen at −80 °C for immunocytochemistry.
In studies 1 and 2, sputum supernatants were analysed for interleukin 6 (IL-6), myeloperoxidase (MPO), monocyte chemotactic protein-1 (MCP-1) and macrophage inflammatory protein-1β (MIP-1 β), using electrochemiluminescent immunoassays (ECLIA) or enzyme-linked immunosorbent assays (ELISA); the manufacturers are listed in the online supplement. In study 3, sputum supernatants were analysed for IL-6, MCP-1 and MIP-1β by the same method.

[7] = tested on: IL-8 production from epithelial cells; parameters: method as in Pfizer, data on file; conditions: ref Pfizer, data on file; cited from earlier work
[8] = study 1, PH-797804 30 mg oral, post LPS
[9] = study 2, PH-797804 30 mg oral (p = 0.0001) or PF-03715455 20 mg inhaled (p = 0.031), single dose
[10] = study 2, PH-797804 30 mg oral or PF-03715455 20 mg inhaled, single dose
[11] = study 2, PH-797804 30 mg oral or PF-03715455 20 mg inhaled, post LPS
[12] = study 2, PH-797804 30 mg oral or PF-03715455 20 mg inhaled
[13] = study 2, post LPS, listed as PF-03715445

For `CNC(=O)c1ccc(C)c(-n2c(C)cc(OCc3ccc(F)cc3F)c(Br)c2=O)c1` [PH-797804], the “geometric mean sputum concentration” value [1] was 4 nM, the “sputum concentration, range” value [1] was 2 to 7 nM and the “attenuation of the modelled LPS response (sputum neutrophil percentage)” value [2] was “approximately 50%”. For the same molecule, the “Mean (SD) sputum neutrophil percentage” value ([2]; study 1, PH-797804 30 mg oral single dose) was 56.4 (24.0) %, the “reduction in mean sputum neutrophil percentage post-LPS compared to placebo” value ([2]; study 1, PH-797804 30 mg oral single dose, p = 0.0096) was 15.1% and the “Total Macrophage Count in sputum” value [2, 8] was 470000 g⁻¹. For the same molecule, the “Total Neutrophil Count in sputum” value [2, 8] was 660000 g⁻¹, the “reduction in mean sputum neutrophil percentage post-LPS compared to placebo” value [2, 9] was 15.3% and the “Mean (SD) sputum neutrophil percentage” value [2, 10] was 60.4 (17.9) %. The “Macrophage Differential in sputum” value [2, 11] was 36.39%, the “Total Cell Count in sputum” value [2, 11] was 2.02e+06 g⁻¹ and the “Total Macrophage Count in sputum” value [2, 11] was 620000 g⁻¹. The “Total Neutrophil Count in sputum” value [2, 11] was 1.17e+06 g⁻¹, the “mean percentage of macrophages expressing phospho-p38” value [3] was 38.00% and the “mean percentage of macrophages expressing phospho-HSP27” value [4] was 42.27%. It also gave a concentration at 23 h ([5]; study 1) of 38.9 ng/mL, a concentration at 30.5 h ([5]; study 1) of 37.8 ng/mL and a concentration at 23 h ([5]; study 2) of 56.8 ng/mL. The concentration at 30.5 h ([5]; study 2) was 49.2 ng/mL, the “Sputum IL-6, mean” value ([6]; study 1, PH-797804 30 mg oral) was 29.66 pg/mL and the “Sputum MCP-1, mean” value ([6]; study 1, PH-797804 30 mg oral) was 155.07 pg/mL. The “Sputum MIP-1β, mean” value ([6]; study 1, PH-797804 30 mg oral) was 330.54 pg/mL, the “Sputum MPO, mean” value ([6]; study 1, PH-797804 30 mg oral) was 669.06 ng/mL and the “sputum supernatant cytokine levels compared to placebo” value ([6]; study 1, PH-797804 30 mg oral, trends towards significance for MCP-1 and MPO) was “did not significantly inhibit”. For the same molecule, the “sputum supernatant IL-6, MPO, MCP-1 and MIP-1β levels compared to placebo” value [6, 12] was “significantly reduced”, the “Sputum IL-6, mean” value [6, 12] was 69.02 pg/mL and the “Sputum MCP-1, mean” value [6, 12] was 133.41 pg/mL. For the same molecule, the “Sputum MIP-1β, mean” value [6, 12] was 609.10 pg/mL, the “Sputum MPO, mean” value [6, 12] was 485.28 ng/mL and the “IL-8 production from epithelial cells” value [7] was “significantly inhibit”.
In the case of `CC(C)(C)c1cc(NC(=O)NCc2ccccc2Sc2ccc3nnc(-c4ccccc4SCCO)n3c2)n(-c2ccc(O)c(Cl)c2)n1` [PF-03715455], the “geometric mean sputum concentration” value [1] is reported as 20 nM, the “sputum concentration, range” value [1] is reported as 4 to 73 nM and the “attenuation of the modelled LPS response (sputum neutrophil percentage)” value [2] is reported as “approximately 25%”. The “reduction in mean sputum neutrophil percentage post-LPS compared to placebo” value [2, 9] was 8.0%, the “Mean (SD) sputum neutrophil percentage” value [2, 10] was 66.4 (14.0) % and the “Macrophage Differential in sputum” value [2, 11] was 30.78%. For the same molecule, the “Total Cell Count in sputum” value [2, 11] was 3.83e+06 g⁻¹, the “Total Macrophage Count in sputum” value [2, 11] was 1.09e+06 g⁻¹ and the “Total Neutrophil Count in sputum” value [2, 11] was 2.43e+06 g⁻¹. The “Total Cell Count in sputum, Ratio of Means active/placebo” value ([2]; study 2, post LPS) was 1.02, the “Total Macrophage Count in sputum, Ratio of Means active/placebo” value ([2]; study 2, post LPS) was 1.62 and the “Total Neutrophil Count in sputum, Ratio of Means active/placebo” value ([2]; study 2, post LPS) was “no effects”. The “Macrophage Differential in sputum, difference between the active treatment mean and the placebo mean” value ([2]; study 2, post LPS) was “significantly attenuated”, the “Macrophage Differential in sputum, difference between the active treatment mean and the placebo mean” value [2, 13] was 7.97% and the “Total Neutrophil Count in sputum, Ratio of Means active/placebo” value [2, 13] was 0.85. For the same molecule, the “attenuation of the baseline measurements (macrophages expressing phospho-P38 and phospho-HSP27)” value ([3]; PF-03715455 20 mg inhaled) was 45–50%, the “mean percentage of macrophages expressing phospho-p38” value [3] was 25.03% and the “mean percentage of macrophages expressing phospho-HSP27” value [4] was 26.89%. For the same molecule, the Plasma concentration ([5]; study 2, 1.5 h post dose) was 472.6 (116.4) pg/mL, the Plasma concentration ([5]; study 2, 6.5 h post dose) was 110.6 (29.7) pg/mL and the “sputum supernatant IL-6, MPO, MCP-1 and MIP-1β levels compared to placebo” value [6, 12] was “no effects”. The “Sputum IL-6, mean” value [6, 12] was 91.67 pg/mL, the “Sputum MCP-1, mean” value [6, 12] was 115.38 pg/mL and the “Sputum MIP-1β, mean” value [6, 12] was 396.35 pg/mL. For the same molecule, the “Sputum MPO, mean” value [6, 12] was 937.04 ng/mL and the “IL-8 production from epithelial cells” value [7] was “significantly inhibit”.
